Test results: PubChem BioAssay (NCI)
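Values below derive from 48-hour exposures of cells grown in 96-well plates, with endpoints linearly interpolated between the two concentrations bracketing the appropriate inhibition level. GI50 is the concentration that inhibits growth by half. At the TGI there is no net growth.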

Experiments:
Test in all cases: NCI anticancer screen, dose series, 48 h
[1] = test system: MDA-MB-435
[2] = test system: SF-268 CNS
[3] = test system: LOX IMVI melanoma
[4] = test system: HCT-15 colon
[5] = test system: DU-145 prostate
[6] = test system: NCI-H522 lung
[7] = test system: OVCAR-8 ovarian
[8] = test system: SN12C renal
[9] = test system: UO-31 renal
[10] = test system: NCI/ADR-RES ovarian
[11] = test system: SK-MEL-28 melanoma
[12] = test system: HS 578T breast
[13] = test system: MOLT-4 leukemia
[14] = test system: HL-60(TB) leukemia
[15] = test system: RXF 393 renal
[16] = test system: RPMI-8226 leukemia
[17] = test system: MCF7 breast
[18] = test system: BT-549 breast
[19] = test system: T-47D breast
[20] = test system: TK-10 renal
[21] = test system: OVCAR-3 ovarian
[22] = test system: HCT-116 colon
[23] = test system: CAKI-1 renal
[24] = test system: MDA-MB-231 breast
[25] = test system: NCI-H23 lung
[26] = test system: MALME-3M melanoma
[27] = test system: IGROV1 ovarian
[28] = test system: ACHN renal
[29] = test system: A498 renal
[30] = test system: SNB-75 CNS
[31] = test system: OVCAR-5 ovarian
[32] = test system: SF-539 CNS
[33] = test system: SF-295 CNS
[34] = test system: SK-OV-3 ovarian
[35] = test system: NCI-H460 lung
[36] = test system: HOP-92 NSCLC
[37] = test system: KM12 colon
[38] = test system: NCI-H226 lung
[39] = test system: SK-MEL-5 melanoma
[40] = test system: K-562 leukemia
[41] = test system: COLO 205 colon
[42] = test system: HCC-2998 colon
[43] = test system: PC-3 prostate
[44] = test system: HOP-62 NSCLC
[45] = test system: CCRF-CEM leukemia
[46] = test system: OVCAR-4 ovarian
[47] = test system: M14 melanoma
[48] = test system: UACC-257 melanoma
[49] = test system: SR leukemia
[50] = test system: SNB-19 CNS
[51] = test system: UACC-62 melanoma
[52] = test system: HT29 colon
[53] = test system: U251 CNS
[54] = test system: SK-MEL-2 melanoma
[55] = test system: A549 NSCLC
[56] = test system: 786-0 renal
[57] = test system: SW-620 colon
[58] = test system: EKVX NSCLC

Q: What does the source list for `c1ccc2c(c1)Sc1ccccc1N2CC1CN2CCC1CC2` (centres undefined)?
A: TGI [1]: 8.7 µM; TGI [2]: 20.9 µM; TGI [3]: 11.5 µM; TGI [4]: 19.6 µM; TGI [5]: 19.4 µM; TGI [6]: 16.5 µM; TGI [7]: 27.2 µM; TGI [8]: 23.7 µM; TGI [9]: 19.4 µM; TGI [10]: 24.5 µM; TGI [11]: 4.32 µM; TGI [12]: 26 µM; TGI [13]: 16.5 µM; TGI [14]: 20.3 µM; TGI [15]: 10.2 µM; TGI [16]: 9.99 µM; TGI [17]: 11.2 µM; TGI [18]: 27.8 µM; TGI [19]: 8.65 µM; TGI [20]: 19.3 µM; TGI [21]: 11.9 µM; TGI [22]: 12.8 µM; TGI [23]: 21 µM; TGI [24]: 15 µM; TGI [25]: 26.1 µM; TGI [26]: 3.91 µM; TGI [27]: 23.2 µM; TGI [28]: 22.2 µM; TGI [29]: 24.7 µM; TGI [30]: 9.56 µM; TGI [31]: 24.5 µM; TGI [32]: 21.8 µM; TGI [33]: 29.1 µM; TGI [34]: 26 µM; TGI [35]: 11.3 µM; TGI [36]: 25.2 µM; TGI [37]: 17.5 µM; TGI [38]: 30.2 µM; TGI [39]: 7.63 µM; TGI [40]: 4.72 µM; TGI [41]: 3.12 µM; TGI [42]: 2.6 µM; TGI [43]: 17.2 µM; TGI [44]: 27 µM; TGI [45]: 14.3 µM; TGI [46]: 20.8 µM; TGI [47]: 3.36 µM; TGI [48]: 3.48 µM; TGI [49]: 7.83 µM; TGI [50]: 22.6 µM; TGI [51]: 10.5 µM; TGI [52]: 11.2 µM; TGI [53]: 14.5 µM; TGI [54]: 9.52 µM; TGI [55]: 22.8 µM; TGI [56]: 19.1 µM; TGI [57]: 13.5 µM; TGI [58]: 24.3 µM

Q: `Cc1ccc2nc3ccccc3c(NCc3ccccc3)c2c1` was tested. Which GI50 [1] did it give?
A: 4.72 µM

Q: What about the TGI [1] of the same compound?
A: 10.8 µM

Q: And the GI50 [2]?
A: 3.83 µM

Q: What about the TGI [2] of the same compound?
A: 10.6 µM

Q: And the GI50 [3]?
A: 1.67 µM

Q: What about the TGI [3] of the same compound?
A: 6.15 µM

Q: And the GI50 [4]?
A: 2.01 µM

Q: What about the TGI [4] of the same compound?
A: 7.64 µM

Q: What about the GI50 [5] of the same compound?
A: 2.56 µM

Q: And the TGI [5]?
A: 8.83 µM

Q: What about the GI50 [6] of the same compound?
A: 2.72 µM

Q: And the TGI [6]?
A: 12.6 µM

Q: And the GI50 [7]?
A: 2.32 µM

Q: What about the TGI [7] of the same compound?
A: 11.1 µM

Q: What about the GI50 [8] of the same compound?
A: 2.41 µM

Q: And the TGI [8]?
A: 9.15 µM

Q: What about the GI50 [9] of the same compound?
A: 1.44 µM

Q: What about the TGI [9] of the same compound?
A: 7.5 µM

Q: And the GI50 [10]?
A: 2.46 µM

Q: And the TGI [10]?
A: 10.6 µM

Q: What about the GI50 [11] of the same compound?
A: 6.67 µM

Q: What about the TGI [11] of the same compound?
A: 14 µM

Q: And the GI50 [12]?
A: 5.14 µM

Q: And the TGI [12]?
A: 15.4 µM

Q: And the GI50 [13]?
A: 1.5 µM

Q: What about the TGI [13] of the same compound?
A: 8.73 µM

Q: What about the GI50 [14] of the same compound?
A: 3.49 µM

Q: And the TGI [14]?
A: 12.7 µM

Q: And the GI50 [15]?
A: 1.42 µM

Q: What about the TGI [15] of the same compound?
A: 5.4 µM

Q: What about the GI50 [16] of the same compound?
A: 1.56 µM

Q: What about the TGI [16] of the same compound?
A: 6.45 µM

Q: And the GI50 [17]?
A: 1.8 µM

Q: And the TGI [17]?
A: 7.93 µM

Q: What about the GI50 [18] of the same compound?
A: 5.13 µM

Q: And the TGI [18]?
A: 11.7 µM

Q: What about the GI50 [19] of the same compound?
A: 7 µM

Q: And the TGI [19]?
A: 18.8 µM

Q: What about the GI50 [20] of the same compound?
A: 6.43 µM

Q: And the TGI [20]?
A: 13.9 µM

Q: What about the GI50 [21] of the same compound?
A: 3.09 µM

Q: And the TGI [21]?
A: 9.97 µM

Q: What about the GI50 [22] of the same compound?
A: 1.44 µM

Q: And the TGI [22]?
A: 6.62 µM

Q: What about the GI50 [23] of the same compound?
A: 2.39 µM

Q: And the TGI [23]?
A: 9.26 µM

Q: And the GI50 [24]?
A: 3.33 µM

Q: And the TGI [24]?
A: 10.5 µM

Q: What about the GI50 [25] of the same compound?
A: 3.69 µM

Q: What about the TGI [25] of the same compound?
A: 11.9 µM

Q: What about the GI50 [26] of the same compound?
A: 4.25 µM

Q: What about the TGI [26] of the same compound?
A: 11 µM

Q: And the GI50 [27]?
A: 2.01 µM

Q: And the TGI [27]?
A: 9.2 µM

Q: And the GI50 [28]?
A: 2.39 µM

Q: What about the TGI [28] of the same compound?
A: 8.88 µM

Q: What about the GI50 [29] of the same compound?
A: 1.24 µM

Q: What about the TGI [29] of the same compound?
A: 6.9 µM

Q: What about the GI50 [30] of the same compound?
A: 5.68 µM

Q: And the TGI [30]?
A: 11.9 µM

Q: And the GI50 [31]?
A: 2.81 µM

Q: What about the TGI [31] of the same compound?
A: 9.92 µM

Q: And the GI50 [32]?
A: 2.43 µM

Q: What about the TGI [32] of the same compound?
A: 9.07 µM

Q: And the GI50 [33]?
A: 2.28 µM

Q: What about the TGI [33] of the same compound?
A: 8.58 µM

Q: What about the GI50 [34] of the same compound?
A: 6.05 µM

Q: What about the TGI [34] of the same compound?
A: 12.9 µM

Q: And the GI50 [35]?
A: 2.07 µM

Q: What about the TGI [35] of the same compound?
A: 7.44 µM

Q: And the GI50 [36]?
A: 1.34 µM

Q: And the TGI [36]?
A: 7.56 µM

Q: What about the GI50 [37] of the same compound?
A: 5.13 µM

Q: What about the TGI [37] of the same compound?
A: 12.6 µM

Q: What about the GI50 [38] of the same compound?
A: 3.59 µM

Q: And the TGI [38]?
A: 12 µM

Q: What about the GI50 [39] of the same compound?
A: 4.46 µM

Q: What about the TGI [39] of the same compound?
A: 10.5 µM

Q: What about the GI50 [40] of the same compound?
A: 1.46 µM

Q: And the TGI [40]?
A: 8.78 µM

Q: And the GI50 [41]?
A: 1.47 µM

Q: And the TGI [41]?
A: 6.46 µM

Q: What about the GI50 [42] of the same compound?
A: 1.86 µM

Q: And the TGI [42]?
A: 6.86 µM

Q: What about the GI50 [43] of the same compound?
A: 1.94 µM

Q: What about the TGI [43] of the same compound?
A: 9.38 µM

Q: What about the GI50 [44] of the same compound?
A: 3.77 µM

Q: What about the TGI [44] of the same compound?
A: 12.5 µM

Q: And the GI50 [45]?
A: 2.12 µM

Q: And the TGI [45]?
A: 50 µM

Q: And the GI50 [46]?
A: 2.64 µM

Q: And the TGI [46]?
A: 9.42 µM

Q: And the GI50 [47]?
A: 5.83 µM

Q: And the TGI [47]?
A: 13 µM

Q: And the GI50 [48]?
A: 7.77 µM

Q: What about the TGI [48] of the same compound?
A: 17.8 µM

Q: And the GI50 [49]?
A: 1.31 µM

Q: What about the TGI [49] of the same compound?
A: 3.62 µM

Q: And the GI50 [50]?
A: 4.01 µM

Q: What about the TGI [50] of the same compound?
A: 11 µM

Q: And the GI50 [51]?
A: 5.9 µM

Q: And the TGI [51]?
A: 12.8 µM

Q: And the GI50 [52]?
A: 1.54 µM

Q: And the TGI [52]?
A: 7.43 µM

Q: And the GI50 [53]?
A: 2.49 µM

Q: What about the TGI [53] of the same compound?
A: 10.2 µM

Q: What about the GI50 [54] of the same compound?
A: 7.79 µM

Q: What about the TGI [54] of the same compound?
A: 16 µM

Q: What about the GI50 [55] of the same compound?
A: 2.63 µM

Q: What about the TGI [55] of the same compound?
A: 10.9 µM

Q: What about the GI50 [56] of the same compound?
A: 2.24 µM

Q: And the TGI [56]?
A: 8.37 µM

Q: What about the GI50 [57] of the same compound?
A: 1.76 µM

Q: What about the TGI [57] of the same compound?
A: 7.85 µM

Q: And the GI50 [58]?
A: 5.07 µM

Q: And the TGI [58]?
A: 12.9 µM
